From patent US11306063B2, “Heterocyclic naphthoquinones derivatives for use in the treatment of cancers including Cushing disease” (Commissariat a l'Energie Atomique et aux Energies …, priority 2016, dated 2022) come the findings set out here.

Read-outs that look alike come from different tables or passages of the source.

The target of experiment [1] is T1, USP8^CD (purified catalytic domain of USP8) (Homo sapiens, UniProt P40818).
T1 construct: the purified catalytic domain of USP8 (USP8^CD, in-house purified); made in house; host or cells: E. coli BL21 Gold
T1 sequence (P40818 777-1109 limits assumed): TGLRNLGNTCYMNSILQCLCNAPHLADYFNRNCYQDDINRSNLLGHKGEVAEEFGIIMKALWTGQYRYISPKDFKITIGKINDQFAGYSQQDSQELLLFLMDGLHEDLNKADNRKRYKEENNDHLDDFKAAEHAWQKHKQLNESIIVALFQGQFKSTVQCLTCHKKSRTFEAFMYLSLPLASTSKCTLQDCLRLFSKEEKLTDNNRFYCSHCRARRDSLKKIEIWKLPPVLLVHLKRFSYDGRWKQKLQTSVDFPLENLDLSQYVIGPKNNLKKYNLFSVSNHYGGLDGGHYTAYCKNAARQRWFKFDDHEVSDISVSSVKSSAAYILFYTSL
As to the kind of experiment: Inhibition of purified USP8^CD enzymatic activity (Ub-AMC or Ub-Rho substrate). It counts as biochemical. The note with it: for inhibition at 0.01 µM: 0.01 μM compound; for inhibition at 0.05 µM: 0.05 μM compound; for inhibition at 0.1 µM: 0.1 μM compound; for inhibition at 0.5 µM: 0.5 μM compound; for inhibition at 1 µM: 1 μM compound; for inhibition at 5 µM: 5 μM compound; for inhibition at 10 µM: 10 μM compound; for inhibition at 25 µM: 25 μM compound; for inhibition at 50 µM: 50 μM compound; for inhibition of USP8^CD catalytic activity (IC50 range, FIG. 1): Ub-Rho substrate (0.1 μM). In short, it runs like this:
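His-tagged catalytic domain expressed in E. coli and purified by Ni affinity and gel filtration. Assayed in 50 mM HEPES pH 7.6 or 40 mM Tris pH 7.4 buffer with 1 mM DTT; compound added just before Ub-AMC or Ub-Rho substrate, fluorescence kinetics followed 20 or 30 min. Median of duplicates.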

The next experiment has as its system MESSA cells. As to the kind of experiment: Cytotoxicity assay (PrestoBlue cell viability), MESSA. The format is cell-based. The note with it: Homo sapiens, MES-SA; 48 hours treatment; concentration inducing 50% cell mortality. Here is the method: (§1) Messa, Messa DX5, HCT116, HEK-293, PC-3, LNCaP, HCC827 and H1975 cell lines are issued from the American Type Culture Collection (ATCC).
(§2) Messa, Messa DX5 and HCT116 were maintained in McCoy's supplemented with 10% fetal bovine serum, and 1% penicillin/streptomycin. PC-3, LNCaP cells were maintained in RPMI medium supplemented with 10% fetal bovine serum, and 1% penicilin/streptomycin and in the case of Messa DX5: 500 nM Doxorubicin was added to maintain selection pressure. HEK293 were maintained in DMEM medium supplemented with 10% fetal bovine serum, and 1% penicillin/streptomycin. Cells were maintained at 37° C. with 5% CO2, 95% air, and humid atmosphere. In the case of hormonal dependent LNCaP cells, 2 μM DiHydroTestosterone (DHT) was added or not—depending on the type of biological assay—for the same incubation period as compounds.
(§3) For cytotoxicity assays, cells were seeded in 96-well microplates 24 hours before the addition of increasing concentrations of each compound in the culture medium. Cell viability was analyzed 48 hours following addition of each compound through the monitoring of mitochondrial […] activity using PrestoBlue® Cell Viability Reagent (Invitrogen; #A-13261). Paclitaxel was used as a control which is cytotoxic on various cancerous cells although not on chemoresistant MESSA DX5 lineage.

Another experiment deals with MESSA DX5 cells. In words: Cytotoxicity assay (PrestoBlue cell viability), MESSA DX5. It counts as cell-based, human. Conditions: for EC50: Homo sapiens, MES-SA/Dx5, 48 hours treatment, chemoresistant line. Here is the method: as §1, §2, §3
The next experiment deals with HEK293 cells. In words: Cytotoxicity assay (PrestoBlue cell viability), HEK293. The format is cell-based. Conditions: Homo sapiens, 48 hours treatment. How it is done: as §1, §2, §3
In another experiment the test system is PC-3 cells. As to the kind of experiment: Cytotoxicity assay (PrestoBlue cell viability), PC-3. Conditions: Homo sapiens, 48 hours treatment. It counts as cell-based. Here is the method: as §1, §2, §3
The next experiment deals with LNCaP cells. In words: Cytotoxicity assay (PrestoBlue cell viability), LNCaP. It counts as cell-based. Conditions: Homo sapiens, 48 hours treatment. How it is done: as §1, §2, §3
A further experiment relates to H1975 cells. As to the kind of experiment: Cytotoxicity assay (PrestoBlue cell viability), H1975. The format is cell-based, human. How it is done:
as §1, §3

In experiment [2] the test system is PC-3 prostatic cancer cells. As to the kind of experiment: Cell growth inhibition and cell death induction (Incucyte), PC-3. It counts as cell-based, human. Conditions: 48 hours, FIG. 12C,D. From the text:
(§4) FIG. 12: The cell growth inhibition and cell death induction of non-small cell lung cancers (NSCLC), HCC827 cells and derivative Gefitinib-resistant clone H1975 (FIG. 12 A,B) and of PC-3 (FIG. 12 C,D) and LnCAP (FIG. 12 E,F) were monitored using Incucyte microscope. Histogram represent in A,C,E: the final cell area relative to the total well area in (%) and in B,D,F: the fluorescent area in μm2. Error bars indicate standard deviation between 6 technical replicates.
(§5) The cell growth inhibition and cell death induction of non-small cell lung cancers (NSCLC), HCC827 cells and derivative Gefitinib-resistant clone H1975 were monitored during a period of 72 hours using Incucyte microscope and dedicated programs allowing to monitor cell confluency (i.e.: cell surface area relative to total well surface) and cell death induction by adding Propidium Iodide (PI) at 1 μg/ml (Sigma Aldrich #P4864) in the culture medium.

Experiment [3] concerns LNCaP prostatic cancer cells. As to the kind of experiment: Cell growth inhibition and cell death induction (Incucyte), LNCaP. The format is cell-based, human. Conditions: 48 hours, FIG. 12E,F.
Source text: as §4, §5

[4] abbreviates: Ub-AMC substrate at 1 μM, Table 2b, read-out: IC50 USP8 CD.
Where [5] appears, read: Ub-Rhodamine substrate at 0.1 μM, Table 2c, read-out: IC50 USP8 CD.

Usually inhibition stands for the drop in the measured response relative to a control, in per cent. In general, IC50 refers to the midpoint of a concentration-inhibition curve. A word on the EC50: it is the midpoint of the concentration-response curve. Read a high EC50 as weaker potency. Regarding `O=C1c2ccccc2C(=O)c2nc(CS(=O)(=O)c3ccccc3F)c(CS(=O)(=O)c3ccccc3F)nc21` [OVM24], in experiment [1] (Table 1d), the inhibition at 0.01 µM is -25%, the inhibition at 0.05 µM was 3%, the inhibition at 0.1 µM was found to be 7% and the inhibition at 0.5 µM was determined as 65%. In experiment [1] (Table 1d), the inhibition at 1 µM is 74%, the inhibition at 5 µM amounted to 78% and the inhibition at 10 µM came out at 97%. Further, in [1] (Table 1b), the inhibition at 1 µM was 64%, the inhibition at 5 µM amounted to 103%, the inhibition at 25 µM is 115% and the inhibition at 50 µM was determined as 103%. Besides, the IC50 in [1] (setting [4]) turned out to be 400 nM. In experiment [1] (setting [5]), the IC50 was found to be 2300 nM. Also, the EC50 in the experiment with MESSA cells is 700 nM. Also, the EC50 in the experiment with MESSA DX5 cells came to 800 nM. In the experiment on HEK293 cells, this compound showed a concentration for a half-maximal effect (EC50) of 2500 nM. In the experiment with PC-3 cells, this compound gave an EC50 of 2500 nM. In the experiment on LNCaP cells, this compound displayed an EC50 of 1300 nM. This compound yielded an EC50 in the experiment with H1975 cells (Homo sapiens, NCI-H1975, 48 h) of 2000 nM. Besides, the “cell growth inhibition and cell death induction, PC-3” value in experiment [2] is “inhibit cell growth and induce cell death in a dose dependent manner”. For the same compound, the “cell growth inhibition and cell death induction, LNCaP” value in experiment [3] was “inhibit cell growth and induce cell death in a dose dependent manner”.

`CCCCS(=O)(=O)Cc1nc2c(nc1CS(=O)(=O)CCCC)C(=O)c1ccccc1C2=O` [PCR6236]: in [1], half-maximal inhibition (IC50) required 60 nM. Also, the “inhibition of USP8^CD catalytic activity (IC50 range, FIG. 1)” value in experiment [1] is recorded as “in the nanomolar range”. In addition, the EC50 was determined as 2000 nM with MESSA cells; 3500 nM in the experiment with MESSA DX5 cells; 1400 nM with HEK293 cells; 800 nM in the experiment with PC-3 cells; 2000 nM with LNCaP cells; 3000 nM with H1975 cells (48 hours treatment, Gefitinib resistant cells). Besides, the EC50 in the experiment with H1975 cells (Homo sapiens, NCI-H1975, 48 h, 48 hours treatment, Gefitinib resistant cells) is not above 3000 nM. The “sensitivity of chemo-resistant MESSA-DX5 compared with nonresistant MESSA cell line” value in the experiment on MESSA DX5 cells was “equally sensitive”. In addition, the “cell growth inhibition and cell death induction, PC-3” value in experiment [2] was “inhibit cell growth and induce cell death in a dose dependent manner”. In addition, the “cell growth inhibition and cell death induction, LNCaP” value in [3] is “inhibit cell growth and induce cell death in a dose dependent manner”.

For `CCCCS(=O)(=O)Cc1nc2c(o1)C(=O)c1ccccc1C2=O` [PCR9301], in experiment [1] (Table 3a), the inhibition at 0.1 µM turned out to be 53%, the inhibition at 0.5 µM came out at 81% and the inhibition at 1 µM was determined as 107%. In experiment [1], the “inhibition of USP8^CD catalytic activity (IC50 range, FIG. 1)” value was “in the nanomolar range”. The IC50 in experiment [1] (Ub-Rho substrate, Table 3b, read-out: IC50 against purified USP8^CD) worked out at 80 nM. Also, the response in the experiment with MESSA cells was half-maximal at 1300 nM (EC50). Besides, in the experiment on MESSA DX5 cells, the “sensitivity of chemo-resistant MESSA-DX5 compared with nonresistant MESSA cell line” value is “equally sensitive” and the EC50 came out at 1800 nM. The midpoint of the response in the experiment with PC-3 cells, the EC50, lay at 1000 nM. Besides, the EC50 with LNCaP cells was 1300 nM.

As for `CCCS(=O)(=O)Cc1nc2c(nc1CS(=O)(=O)CCC)C(=O)c1ccccc1C2=O` [VIN6074], in [1] (Table 1d), the inhibition at 0.01 µM is -17%, the inhibition at 0.05 µM is 16%, the inhibition at 0.1 µM was 0% and the inhibition at 0.5 µM was 67%. Moreover, in [1] (Table 1d), the inhibition at 1 µM is 93%, the inhibition at 5 µM is 103% and the inhibition at 10 µM stood at 99%. Besides, in experiment [1] (Table 1b), the inhibition at 1 µM was determined as 93%, the inhibition at 5 µM came to 98%, the inhibition at 25 µM was found to be 100% and the inhibition at 50 µM amounted to 107%. Moreover, the IC50 in experiment [1] (setting [4]) was 300 nM. Also, in [1] (setting [5]), the IC50 amounted to 40 nM. This compound also had an EC50 in the experiment on MESSA cells of 2700 nM. In the experiment with MESSA DX5 cells, this compound yielded an EC50 of 3500 nM. For the same compound, the EC50 with HEK293 cells came to 1500 nM. A half-maximal effect in the experiment on PC-3 cells (EC50) was put at 2300 nM. The compound further returned an EC50 in the experiment with LNCaP cells of 1900 nM. The compound also displayed an EC50 in the experiment on H1975 cells (Homo sapiens, NCI-H1975, 48 h) of 2000 nM. Besides, the “cell growth inhibition and cell death induction, PC-3” value in experiment [2] was “inhibit cell growth and induce cell death in a dose dependent manner”. Further, in experiment [3], the “cell growth inhibition and cell death induction, LNCaP” value is “inhibit cell growth and induce cell death in a dose dependent manner”.
